Key:
[1] = biological target: T1, F. ignava NrdB (Grx::NrdB fusion protein, NrdBi) (Falseniella ignava, UniProt K1LAT4); experiment: glutaredoxin activity, NADPH consumption at […] nm (GSH reductase coupled); format: biochemical; conditions: 4 mM GSH, 0.4 mM NADPH, pH 8.0, room temperature; Grx domain; artificial substrate
T1 construct: gene HMPREF9707_01368; full-length 496-residue fusion (Grx 4-61, ATP cone 84-169, NrdB core); E. coli BL21(DE3); dimer-tetramer equilibrium

[2] = biological target: T2, F. ignava NrdB (Grx::NrdB fusion protein, NrdBi) (Falseniella ignava, UniProt K1LAT4, C15S); experiment: as above; format: biochemical; conditions: 4 mM GSH, 0.4 mM NADPH, pH 8.0, room temperature; Grx domain, monothiol mechanism
T2 construct: gene HMPREF9707_01368; full-length 496-residue fusion (Grx 4-61, ATP cone 84-169, NrdB core); E. coli BL21(DE3); dimer-tetramer equilibrium

[3] = biological target: T1, F. ignava NrdB (Grx::NrdB fusion protein, NrdBi); experiment: biochemical; format: binding
[4] = biological target: T3, F. ignava RNR holoenzyme (NrdA + NrdB) (Falseniella ignava, UniProt K1LAT4); experiment: RNR activity; format: biochemical; conditions: weaker inhibition than dATP; ATP cone of NrdB
T3 construct: gene HMPREF9707_01368; E. coli BL21(DE3); active complex alpha2beta2; with Ribonucleoside-diphosphate reductase subunit alpha
T3 sequence (K1LAT4 1-496): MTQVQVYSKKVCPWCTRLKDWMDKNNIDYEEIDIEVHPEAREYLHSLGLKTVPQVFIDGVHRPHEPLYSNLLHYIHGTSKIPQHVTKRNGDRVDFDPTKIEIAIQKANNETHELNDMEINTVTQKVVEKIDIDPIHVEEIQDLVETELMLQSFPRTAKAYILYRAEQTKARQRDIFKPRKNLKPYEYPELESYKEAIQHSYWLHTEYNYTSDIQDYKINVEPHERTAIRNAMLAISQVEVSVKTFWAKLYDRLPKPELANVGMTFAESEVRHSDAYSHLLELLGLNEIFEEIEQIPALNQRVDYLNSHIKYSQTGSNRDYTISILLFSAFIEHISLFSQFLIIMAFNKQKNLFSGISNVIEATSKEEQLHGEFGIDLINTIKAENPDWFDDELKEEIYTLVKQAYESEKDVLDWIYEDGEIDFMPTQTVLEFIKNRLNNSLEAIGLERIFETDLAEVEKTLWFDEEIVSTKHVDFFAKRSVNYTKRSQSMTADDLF
T3 sequence (K1MC37 1-567 partner): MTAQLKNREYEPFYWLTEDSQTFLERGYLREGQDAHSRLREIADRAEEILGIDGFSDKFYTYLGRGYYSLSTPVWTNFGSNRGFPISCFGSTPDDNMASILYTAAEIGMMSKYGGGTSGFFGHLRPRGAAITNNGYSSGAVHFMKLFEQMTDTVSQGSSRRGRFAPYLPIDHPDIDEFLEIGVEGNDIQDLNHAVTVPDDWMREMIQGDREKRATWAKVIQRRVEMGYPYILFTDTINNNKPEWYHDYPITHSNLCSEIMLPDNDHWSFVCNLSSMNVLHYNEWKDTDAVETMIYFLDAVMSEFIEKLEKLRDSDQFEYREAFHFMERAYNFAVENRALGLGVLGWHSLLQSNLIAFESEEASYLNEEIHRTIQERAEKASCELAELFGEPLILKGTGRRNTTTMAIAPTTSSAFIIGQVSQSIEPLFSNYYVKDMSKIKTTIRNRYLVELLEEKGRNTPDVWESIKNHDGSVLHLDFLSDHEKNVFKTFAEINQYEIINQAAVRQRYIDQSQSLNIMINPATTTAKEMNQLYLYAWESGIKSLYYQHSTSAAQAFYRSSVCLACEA

[5] = biological target: Facklamia ignava NrdBΔGrx (NrdB lacking the Grx domain) (Facklamia ignava); experiment: GEMMA (gas-phase electrophoretic macromolecule analysis); NrdB deletion proteins analysed with and without 50 uM dATP (the text does not tell the two conditions apart); 20 mM ammonium acetate pH 7.8, 1 mM DTT, 0.005% Tween 20; step: dimers to tetramer
[6] = biological target: T4, heterologous F. ignava NrdA/L. blandensis NrdB holoenzyme (Leeuwenhoekiella blandensis, UniProt A3XHF9); experiment: RNR activity (dGDP formation by HPLC); format: biochemical; conditions: GDP substrate, 2 mM dTTP, pH 8, room temperature; allosteric inhibition via L. blandensis NrdB ATP cone
T4 construct: gene MED217_17135; mixed-species complex; F. ignava NrdA His6-tagged, E. coli; with Ribonucleoside-diphosphate reductase subunit alpha (Falseniella ignava CCUG 37419)
T4 sequence (A3XHF9 1-427): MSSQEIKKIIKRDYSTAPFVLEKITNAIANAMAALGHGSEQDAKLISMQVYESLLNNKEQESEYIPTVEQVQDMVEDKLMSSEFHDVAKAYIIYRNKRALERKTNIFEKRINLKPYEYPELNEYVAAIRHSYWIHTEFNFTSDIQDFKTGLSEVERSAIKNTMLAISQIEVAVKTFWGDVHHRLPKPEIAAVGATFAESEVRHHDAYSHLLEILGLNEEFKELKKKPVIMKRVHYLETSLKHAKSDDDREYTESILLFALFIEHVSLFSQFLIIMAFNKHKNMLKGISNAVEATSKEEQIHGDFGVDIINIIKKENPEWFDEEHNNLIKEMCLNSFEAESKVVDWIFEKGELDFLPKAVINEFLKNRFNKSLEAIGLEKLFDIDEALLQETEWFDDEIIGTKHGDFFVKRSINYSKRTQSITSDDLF
T4 sequence (K1MC37 1-567 partner): T3 sequence (K1MC37 1-567 partner)

[7] = biological target: T3, F. ignava RNR holoenzyme (NrdA + NrdB); experiment: RNR activity (dGDP formation by HPLC); format: biochemical
[8] = biological target: the molecule itself; experiment: GEMMA (gas-phase electrophoretic macromolecule analysis); no effector; 0.05 mg/ml protein (0.025 mg/ml of each in mixtures), 20 mM ammonium acetate pH 7.8, 1 mM DTT, 0.005% Tween 20, room temperature
[9] = biological target: the molecule itself; experiment: SEC; Superdex 200 10/300, 0.1 mM dATP in the mobile phase; 50 mM KCl, 10 mM MgCl2, 0.1 mM DTT, 50 mM Tris-HCl pH 7.6, room temperature; single subunits 5 and 10 uM, mixture 10 and 20 uM of each
[10] = biological target: the molecule itself; experiment: SEC; Superdex 200 10/300, no effector; 50 mM KCl, 10 mM MgCl2, 0.1 mM DTT, 50 mM Tris-HCl pH 7.6, room temperature; NrdA 5 and 10 uM, NrdB 1.25-10 uM, mixture 10 uM of each

## OCCSSCCO [2-hydroxyethyl disulfide]
[1]
  Km: 600 ± 90 µM
[2]
  Km: 1300 ± 240 µM

## Nc1ncnc2c1ncn2[C@H]1C[C@H](O)[C@@H](COP(=O)(O)OP(=O)(O)O)O1 [dADP]
[3]
  Kd: 5.8 µM
[4]
  RNR activity: Titration with dADP inhibited the WT enzyme activity (Fig. S2)

## Facklamia ignava NrdBΔGrx (NrdB lacking the Grx domain) (domain or fragment)
[5]
  stoichiometry N: 4

## Nc1ncnc2c1ncn2[C@H]1C[C@H](O)[C@@H](COP(=O)(O)OP(=O)(O)OP(=O)(O)O)O1 [dATP]
[6]
  Ki: ~70 µM
[3]
  Kd: 0.4 µM
[7]
  Ki: 1.3 ± 0.23 µM

## Nc1ncnc2c1ncn2[C@@H]1O[C@H](COP(=O)(O)OP(=O)(O)OP(=O)(O)O)[C@@H](O)[C@H]1O [ATP]
[3]
  Kd: 6.8 µM

B1: Facklamia ignava NrdB (Grx::ATP-cone::NrdB fusion protein, NrdBi) (enzyme, UniProt K1LAT4 1-496, looked up)
chain: T3 sequence (K1LAT4 1-496)
notes: NrdB (NrdBi) of Facklamia ignava CCUG 37419, 496 residues: Grx domain (residues 4-61), ATP cone (residues 84-169), then the NrdB proper; amplified from genomic DNA with primers from the start ATG to the stop codon; a thrombin cleavage site follows the His6 tag; Expressed with 0.5 mM MnSO4; holds a Mn(III)/Mn(IV) cofactor; Dimer or tetramer by condition; also called WT NrdB; source: E. coli …
[8]
  stoichiometry N: 2
[9]
  stoichiometry N: 4

B2: Facklamia ignava NrdA (NrdAi) (enzyme, UniProt K1MC37 1-567, looked up)
chain: T3 sequence (K1MC37 1-567 partner)
notes: NrdA (NrdAi), catalytic subunit of the class I ribonucleotide reductase of Facklamia ignava CCUG 37419; amplified from genomic DNA with primers from the start ATG to the stop codon; a thrombin cleavage site follows the His6 tag; the form rests on the printed primers (ATG to stop); source: E. coli BL21(DE3), pET-28a(+), purified (HisTrap nickel-Sepharose, Superdex 200, phenyl-Sepharose)
[10]
  stoichiometry N: 2

From publication PMC6187632, “A glutaredoxin domain fused to the radical-generating subunit of ribonucleotide reductase (RNR) functions as an efficient RNR reductant” (The Journal of Biological Chemistry, 2018)
